Measured values from patent publication US20260262643A1, “HERBICIDAL BENZOXAZINES” (FMC CORPORATION, priority 2022, published 2026).

Tests used:
[1] = system: ragweed; test: Test C preemergence; assay type: in vivo, Ambrosia artemisiifolia; conditions: 0 to 100 scale (0 no effect, 100 complete control)
Outline: (§1)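 Pre: seeds in loam/sand, directed soil spray. Post: 1–2 leaf plants, 2–10 cm. Cmpd in non-phytotoxic solvent + surfactant. Greenhouse 10 d; visual rating vs untreated, 0 = none, 100 = complete control.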

[2] = system: wheat; test: Test C preemergence; assay type: in vivo, Triticum aestivum; conditions: 0 to 100 scale (0 no effect, 100 complete control)
Outline: as §1

[3] = system: wheat; test: Test C postemergence; assay type: in vivo, Triticum aestivum; conditions: 10 days
Outline: as §1

[4] = system: ducksalad; test: Test D flooded paddy test; assay type: in vivo, Heteranthera limosa; conditions: 250 g ai/ha, applied to paddy water, visual rating after 13 to 14 days, scale 0 to 100 (0 no effect, 100 complete control)
Outline: (§2)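 Plants at the 2-leaf stage were grown in pots flooded to 3 cm, and compound was applied directly into the paddy water, with depth kept throughout. After 13–14 days in a greenhouse, injury was rated visually against untreated controls on a 0–100 scale (100 = complete control); a dash means not tested.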

[5] = system: soybean; test: Test C postemergence; assay type: in vivo, Glycine max; conditions: 10 days
Outline: as §1

[6] = system: barnyardgrass; test: Test D flooded paddy test; assay type: in vivo, Echinochloa crus-galli; conditions: 250 g ai/ha, applied to paddy water, visual rating after 13 to 14 days, scale 0 to 100 (0 no effect, 100 complete control)
Outline: as §2

[7] = system: green foxtail; test: Test C postemergence; assay type: in vivo, Setaria viridis; conditions: 10 days
Outline: as §1

[8] = system: ryegrass, Italian; test: Test C postemergence; assay type: in vivo, Lolium multiflorum; conditions: 10 days
Outline: as §1

[9] = system: oat, wild; test: Test C preemergence; assay type: in vivo, Avena fatua; conditions: 0 to 100 scale (0 no effect, 100 complete control)
Outline: as §1

[10] = system: sedge, umbrella; test: Test D flooded paddy test; assay type: in vivo, Cyperus difformis; conditions: 250 g ai/ha, applied to paddy water, visual rating after 13 to 14 days, scale 0 to 100 (0 no effect, 100 complete control)
Outline: as §2

[11] = system: barnyardgrass; test: Test C preemergence; assay type: in vivo, Echinochloa crusgalli; conditions: 0 to 100 scale (0 no effect, 100 complete control)
Outline: as §1

[12] = system: pigweed, palmer; test: Test C postemergence; assay type: in vivo, Amaranthus palmeri; conditions: 10 days
Outline: as §1

[13] = system: pigweed, palmer; test: Test C preemergence; assay type: in vivo, Amaranthus palmeri; conditions: 0 to 100 scale (0 no effect, 100 complete control)
Outline: as §1

[14] = system: rice; test: Test D flooded paddy test; assay type: in vivo, Oryza sativa; conditions: 250 g ai/ha, applied to paddy water, visual rating after 13 to 14 days, scale 0 to 100 (0 no effect, 100 complete control)
Outline: as §2

[15] = system: barnyardgrass; test: Test C postemergence; assay type: in vivo, Echinochloa crusgalli; conditions: 10 days
Outline: as §1

[16] = system: corn; test: Test C preemergence; assay type: in vivo, Zea mays; conditions: 0 to 100 scale (0 no effect, 100 complete control)
Outline: as §1

[17] = system: ragweed; test: Test C postemergence; assay type: in vivo, Ambrosia artemisiifolia; conditions: 10 days
Outline: as §1

[18] = system: oat, wild; test: Test C postemergence; assay type: in vivo, Avena fatua; conditions: 10 days
Outline: as §1

[19] = system: blackgrass; test: Test C preemergence; assay type: in vivo, Alopecurus myosuroides; conditions: 0 to 100 scale (0 no effect, 100 complete control)
Outline: as §1

[20] = system: horseweed; test: Test C postemergence; assay type: in vivo, Erigeron canadensis; conditions: 10 days
Outline: as §1

[21] = system: corn; test: Test C postemergence; assay type: in vivo, Zea mays; conditions: 10 days
Outline: as §1

[22] = system: galium; test: Test C postemergence; assay type: in vivo, Galium aparine; conditions: 10 days
Outline: as §1

[23] = system: green foxtail; test: Test C preemergence; assay type: in vivo, Setaria viridis; conditions: 0 to 100 scale (0 no effect, 100 complete control)
Outline: as §1

[24] = system: kochia; test: Test C preemergence; assay type: in vivo, Bassia scoparia; conditions: 0 to 100 scale (0 no effect, 100 complete control)
Outline: as §1

[25] = system: soybean; test: Test C preemergence; assay type: in vivo, Glycine max; conditions: 0 to 100 scale (0 no effect, 100 complete control)
Outline: as §1

[26] = system: blackgrass; test: Test C postemergence; assay type: in vivo, Alopecurus myosuroides; conditions: 10 days
Outline: as §1

[27] = system: kochia; test: Test C postemergence; assay type: in vivo, Bassia scoparia; conditions: 10 days
Outline: as §1

[28] = system: ryegrass, Italian; test: Test C preemergence; assay type: in vivo, Lolium multiflorum; conditions: 0 to 100 scale (0 no effect, 100 complete control)
Outline: as §1

[29] = Preemergence, 500 g ai/ha, visual rating after 10 days
[30] = Test C, preemergence, 125 g ai/ha
[31] = 125 g ai/ha, postemergence, 0 to 100 scale, 0 no effect, 100 complete control
[32] = Postemergence, 500 g ai/ha, visual 0 to 100 scale (0 no effect, 100 complete control)

In the case of `Cc1cc(-n2cnc(C(C)C)n2)cc(C(=O)N2C[C@H](C)Oc3c(Cl)cccc32)c1Cl` [Compound 220], the “Plant response rating, Ragweed” value [1, 29] is reported as 0, the “Ragweed plant response rating” value [1, 30] is reported as 0 and the “Plant response rating, Wheat” value [2, 29] is reported as 70. For the same molecule, the “Wheat plant response rating” value [2, 30] was 20, the “Plant response rating, Wheat” value [3, 31] was 20 and the “Plant response rating, Wheat” value [3, 32] was 20. For the same molecule, the “Plant response rating, Ducksalad (Flood)” value [4] was 0, the “Plant response rating, Soybean” value [5, 31] was 100 and the “Plant response rating, Soybean” value [5, 32] was 100. For the same molecule, the “Plant response rating, Barnyardgrass (Flood)” value [6] was 0, the “Plant response rating, Foxtail, Green” value [7, 31] was 20 and the “Plant response rating, Foxtail, Green” value [7, 32] was 50. For the same molecule, the “Plant response rating, Ryegrass, Italian” value [8, 31] was 30, the “Plant response rating, Ryegrass, Italian” value [8, 32] was 70 and the “Plant response rating, Oat, Wild” value [9, 29] was 70. For the same molecule, the “Oat, Wild plant response rating” value [9, 30] was 60, the “Plant response rating, Sedge, Umbrella (Flood)” value [10] was 0 and the “Plant response rating, Barnyardgrass” value [11, 29] was 80. The “Barnyardgrass plant response rating” value [11, 30] was 50, the “Plant response rating, Pigweed, Palmer” value [12, 31] was 90 and the “Plant response rating, Pigweed, Palmer” value [12, 32] was 100. For the same molecule, the “Plant response rating, Pigweed, Palmer” value [13, 29] was 100, the “Pigweed, Palmer plant response rating” value [13, 30] was 90 and the “Plant response rating, Rice (Flood)” value [14] was 0. For the same molecule, the “Plant response rating, Barnyardgrass” value [15, 31] was 30, the “Plant response rating, Barnyardgrass” value [15, 32] was 90 and the “Plant response rating, Corn” value [16, 29] was 10. The “Corn plant response rating” value [16, 30] was 0, the “Plant response rating, Ragweed” value [17, 31] was 0 and the “Plant response rating, Ragweed” value [17, 32] was 0. The “Plant response rating, Oat, Wild” value [18, 31] was 0, the “Plant response rating, Oat, Wild” value [18, 32] was 0 and the “Plant response rating, Blackgrass” value [19, 29] was 70. The “Blackgrass plant response rating” value [19, 30] was 40, the “Plant response rating, Horseweed” value [20, 31] was 60 and the “Plant response rating, Horseweed” value [20, 32] was 30. The “Plant response rating, Corn” value [21, 31] was 10, the “Plant response rating, Corn” value [21, 32] was 20 and the “Plant response rating, Galium” value [22, 31] was 100. For the same molecule, the “Plant response rating, Galium” value [22, 32] was 100, the “Plant response rating, Foxtail, Green” value [23, 29] was 100 and the “Foxtail, Green plant response rating” value [23, 30] was 100. For the same molecule, the “Plant response rating, Kochia” value [24, 29] was 90, the “Kochia plant response rating” value [24, 30] was 80 and the “Plant response rating, Soybean” value [25, 29] was 80. The “Soybean plant response rating” value [25, 30] was 0, the “Plant response rating, Blackgrass” value [26, 31] was 40 and the “Plant response rating, Blackgrass” value [26, 32] was 50. For the same molecule, the “Plant response rating, Kochia” value [27, 31] was 70, the “Plant response rating, Kochia” value [27, 32] was 90 and the “Plant response rating, Ryegrass, Italian” value [28, 29] was 90. For the same molecule, the “Ryegrass, Italian plant response rating” value [28, 30] was 80.
